Results reported in ChEMBL document CHEMBL1142107, “The effect of halide salts on the production of Gymnoascus reessii polyenylpyrroles” (J Nat Prod, 2007).

What was measured:
[1] = Cytotoxicity against NS1 cell line up to 15 uM; assay type: cell-based; settings: mouse
[2] = Cytotoxicity against NS1 cell line; assay type: cell-based; settings: mouse

For `COc1cc(/C(C)=C/C=C/C=C/C=C/c2ccc[nH]2)oc(=O)c1C`, the Activity [1] was “Not Active”.

In the case of `COc1cc(/C(C)=C/C=C/C=C/C=C/c2[nH]ccc2Br)oc(=O)c1C`, the LD99 [2] is reported as 1.9 µM.

For `COc1cc(/C(C)=C/C=C/C=C/C=C/c2[nH]ccc2Cl)oc(=O)c1C`, the LD99 [2] was 0.034 µM.
